Legend:
GDP-loaded KRAS G12D = GDP-loaded KRAS G12D (Homo sapiens (Human), UniProt P01116, G12D); assay: KRAS G12D (GDP) biochemical assay (TR-FRET probe displacement); type: binding; settings: 2 hours
Summary of the method: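 TR-FRET probe displacement: 1:3 DMSO serial dilutions pre-incubated 30 min with GDP-bound KRAS G12D, followed by Eu-streptavidin/probe for 2 h at room temperature (Hepes pH 7.4, NaCl, MgCl2, Tween-20 buffer). IC50 defined as concentration halving TR-FRET ratio, from sigmoidal dose-response fit.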

GP2D (KRAS G12D) cells = assay: 2D cell viability assay (CellTiter-Glo); type: cell-based; settings: 4 days
Summary of the method: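 Viability was read by CellTiter-Glo after 4 days at 37 °C of 2D culture of KRAS G12D GP2D cells (1000/well, RPMI, 10% FBS) on pre-spotted threefold compound dilutions. EC50 was fitted with a sigmoidal dose-response model as the point of half-maximal luminescence loss.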

AsPC-1 (KRAS G12D) cells = assay: 3D cell viability assay (spheroids, CellTiter-Glo 3D); type: cell-based; settings: AsPC-1 cells, 3D spheroids, 4 days
Summary of the method: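 AsPC-1 cells (1000/well) in DMEM with 10% FBS formed spheroids over 3 days at 37 °C in ultra-low attachment plates, then were treated with 1:3 serial dilutions for 4 days. Viability read by CellTiter-Glo 3D luminescence; EC50 as concentration giving 50% signal decrease, sigmoidal fit.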

Compound	IC50 (GDP-loaded KRAS G12D)	EC50 (GP2D (KRAS G12D) cells; GP2d, 96 h)	EC50 (AsPC-1 (KRAS G12D) cells; Homo sapiens, ASPC1, 96 h)	EC50 (GP2D (KRAS G12D) cells)	EC50 (AsPC-1 (KRAS G12D) cells)
C#Cc1c(F)ccc2cc(O)cc(-c3nc4c5c(nc(OCC6(CN7CCC[Si](C)(C)CC7)CC6)nc5c3F)N3C[C@H]5CC[C@H](N5)[C@H]3CC4)c12 [Example 78, 4-((5aR,6S,9R)-12-((1-((4,4-dimethyl-1,4-azasilepan-1-yl)methyl)cyclopropyl)methoxy)-1-fluoro-4,5,5a,6,7,8,9,10-octahydro-3,10a,11,13,14-pentaaza-6,9-methanonaphtho[1,8-ab]heptalen-2-yl)-5-ethynyl-6-fluoronaphthalen-2-ol]	0.2 nM	3.9 nM	15 nM	–	–
C#Cc1c(F)ccc2cc(O)cc(-c3cc4c5c(nc(OC[C@@]67CCCN6C[C@H](F)C7)nc5c3F)N3C[C@H]5CC[C@H](N5)[C@H]3CC4)c12 [Example 52, 5-ethynyl-6-fluoro-4-((1S,4R,14aR)-10-fluoro-8-(((2R,7aS)-2-fluorotetrahydro-1H-pyrrolizin-7a(5H)-yl)methoxy)-1,2,3,4,5,13,14,14a-octahydro-1,4-epiminoazepino[1′,2′:1,7]azepino[2,3,4-de]quinazolin-11-yl)naphthalen-2-ol]	0.1 nM	1 nM	7 nM	–	–
C#Cc1c(F)ccc2cc(O)cc(-c3nc4c5c(nc(OC[C@@]67CCCN6C[C@@H](OC(C(F)(F)F)(C(F)(F)F)C(F)(F)F)C7)nc5c3F)N3C[C@H]5CC[C@H](N5)[C@H]3CC4)c12 (stereo in doubt) [Example 134, 5-ethynyl-6-fluoro-4-((5aR,6S,9R)-1-fluoro-12-((cis-2-((1,1,1,3,3,3-hexafluoro-2-(trifluoromethyl)propan-2-yl)oxy)tetrahydro-1H-pyrrolizin-7a(5H)-yl)methoxy)-4,5,5a,6,7,8,9,10-octahydro-3,10a,11,13,14-pentaaza-6,9-methanonaphtho[1,8-ab]heptalen-2-yl)naphthalen-2-ol]	0.5 nM	2.2 nM	31 nM	–	–
C#Cc1c(F)ccc2cc(O)cc(-c3nc4c5c(nc(OC[C@]67CC(=C)CN6C[C@H](F)C7)nc5c3F)N3C[C@H]5CC[C@H](N5)[C@H]3CO4)c12 [Example 13, 5-ethynyl-6-fluoro-4-((5aS,6S,9R)-1-fluoro-12-(((2R,7aR)-2-fluoro-6-methylenetetrahydro-1H-pyrrolizin-7a(5H)-yl)methoxy)-5a,6,7,8,9,10-hexahydro-5H-4-oxa-3,10a,11,13,14-pentaaza-6,9-methanonaphtho[1,8-ab]heptalen-2-yl)naphthalen-2-ol]	0.4 nM	2 nM	17 nM	–	–
C#Cc1c(F)ccc2cccc(-c3nc4c5c(nc(OC[C@@]67CCCN6C[C@H](F)C7)nc5c3F)N3C[C@H]5CC[C@H](N5)[C@H]3CC[C@H]4C)c12 [Example 171, (4R,6aR,7S,10R)-2-(8-ethynyl-7-fluoronaphthalen-1-yl)-1-fluoro-13-(((2R,7aS)-2-fluorotetrahydro-1H-pyrrolizin-7a(5H)-yl)methoxy)-4-methyl-5,6,6a,7,8,9,10,11-octahydro-4H-3,11a,12,14,15-pentaaza-7,10-methanocyclohepta[4,5]cycloocta[1,2,3-de]naphthalene]	< 0.1 nM	1.9 nM	120 nM	–	–
C#Cc1c(F)ccc2cc(O)cc(-c3nc4c5c(nc(OC[C@@]67CCCN6[C@H](COC(=O)N6CCCCCC6)CC7)nc5c3F)N3C[C@H]5CC[C@H](N5)[C@H]3CO4)c12 [Example 38, ((3S,7aS)-7a-((((5aS,6S,9R)-2-(8-ethynyl-7-fluoro-3-hydroxynaphthalen-1-yl)-1-fluoro-5a,6,7,8,9,10-hexahydro-5H-4-oxa-3,10a,11,13,14-pentaaza-6,9-methanonaphtho[1,8-ab]heptalen-12-yl)oxy)methyl)hexahydro-1H-pyrrolizin-3-yl)methyl azepane-1-carboxylate]	0.3 nM	28 nM	47 nM	–	–
4-((5S,5aS,6S,9R)-5-ethyl-1-fluoro-12-(((2R,7aS)-2-fluorotetrahydro-1H-pyrrolizin-7a(5H)-yl)methoxy)-5a,6,7,8,9,10-hexahydro-5H-4-oxa-3,10a,11,13,14-pentaaza-6,9-methanonaphtho[1,8-ab]heptalen-2-yl)-5-ethynyl-6-fluoronaphthalen-2-ol [Example 80]	0.1 nM	–	–	2.2 nM	2 nM
Oc1cc(-c2nc3c4c(nc(OC[C@@]56CCCN5C[C@H](F)C6)nc4c2F)N2C[C@H]4CC[C@H](N4)[C@H]2CO3)c2c(F)c(F)ccc2c1 [Example 1, 5,6-difluoro-4-((5aS,6S,9R)-1-fluoro-12-(((2R,7aS)-2-fluorotetrahydro-1H-pyrrolizin-7a(5H)-yl)methoxy)-5a,6,7,8,9,10-hexahydro-5H-4-oxa-3,10a,11,13,14-pentaaza-6,9-methanonaphtho[1,8-ab]heptalen-2-yl)naphthalen-2-ol]	0.5 nM	19 nM	170 nM	–	–
C#Cc1c(F)ccc2cccc(-c3nc4c5c(nc(OC[C@@]67CCCN6[C@H](COC(C)(C(F)(F)F)C(F)(F)F)CC7)nc5c3F)N3C[C@H]5CC[C@H](N5)[C@H]3CCC4)c12 [Example 115, (6aR,7S,10R)-2-(8-ethynyl-7-fluoronaphthalen-1-yl)-1-fluoro-13-(((3S,7aS)-3-(((1,1,1,3,3,3-hexafluoro-2-methylpropan-2-yl)oxy)methyl)tetrahydro-1H-pyrrolizin-7a(5H)-yl)methoxy)-5,6,6a,7,8,9,10,11-octahydro-4H-3,11a,12,14,15-pentaaza-7,10-methanocyclohepta[4,5]cycloocta[1,2,3-de]naphthalene]	0.1 nM	11.5 nM	100 nM	–	–
C#Cc1c(F)ccc2cc(O)cc(-c3nc4c5c(nc(OC[C@@]67CCCN6[C@H](COc6cnc(C(F)(F)F)cn6)CC7)nc5c3F)N3C[C@H]5CC[C@H](N5)[C@H]3CC4)c12 [Example 155, 5-ethynyl-6-fluoro-4-((5aR,6S,9R)-1-fluoro-12-(((3S,7aS)-3-(((5-(trifluoromethyl)pyrazin-2-yl)oxy)methyl)tetrahydro-1H-pyrrolizin-7a(5H)-yl)methoxy)-4,5,5a,6,7,8,9,10-octahydro-3,10a,11,13,14-pentaaza-6,9-methanonaphtho[1,8-ab]heptalen-2-yl)naphthalen-2-ol]	0.1 nM	0.3 nM	5.2 nM	–	–
C#Cc1c(F)ccc2cc(O)cc(-c3nc4c5c(nc(OCC6(CN7CC8CC(C8)C7)CC6)nc5c3F)N3C[C@H]5CC[C@H](N5)[C@H]3CC4)c12 [Example 179, 4-((5aR,6S,9R)-12-((1-((3-azabicyclo[3.1.1]heptan-3-yl)methyl)cyclopropyl)methoxy)-1-fluoro-4,5,5a,6,7,8,9,10-octahydro-3,10a,11,13,14-pentaaza-6,9-methanonaphtho[1,8-ab]heptalen-2-yl)-5-ethynyl-6-fluoronaphthalen-2-ol]	0.1 nM	0.4 nM	7.7 nM	–	–
Oc1cc(-c2nc3c4c(nc(OC[C@@]56CCCN5C[C@H](F)C6)nc4c2F)N2C[C@H]4CC[C@H](N4)[C@H]2CO3)c2c(Cl)cccc2c1 [Example 17, 5-chloro-4-((5aS,6S,9R)-1-fluoro-12-(((2R,7aS)-2-fluorotetrahydro-1H-pyrrolizin-7a(5H)-yl)methoxy)-5a,6,7,8,9,10-hexahydro-5H-4-oxa-3,10a,11,13,14-pentaaza-6,9-methanonaphtho[1,8-ab]heptalen-2-yl)naphthalen-2-ol]	0.4 nM	49 nM	180 nM	–	–
C#Cc1c(F)ccc2cc(O)cc(-c3nc4c5c(nc(OCC6(CN7CCC(COC(C(F)(F)F)(C(F)(F)F)C(F)(F)F)CC7)CC6)nc5c3F)N3C[C@H]5CC[C@H](N5)[C@H]3CC4)c12 [Example 143, 5-ethynyl-6-fluoro-4-((5aR,6S,9R)-1-fluoro-12-((1-((4-(((1,1,1,3,3,3-hexafluoro-2-(trifluoromethyl)propan-2-yl)oxy)methyl)piperidin-1-yl)methyl)cyclopropyl)methoxy)-4,5,5a,6,7,8,9,10-octahydro-3,10a,11,13,14-pentaaza-6,9-methanonaphtho[1,8-ab]heptalen-2-yl)naphthalen-2-ol]	1.9 nM	3.1 nM	110 nM	–	–
C#Cc1c(F)ccc2cc(O)cc(-c3nc4c5c(nc(OC[C@@]67CCCN6C[C@H](F)C7)nc5c3F)N3C[C@H]5CC[C@H](N5)[C@H]3CCC4)c12 [Example 75, 5-ethynyl-6-fluoro-4-((6aR,7S,10R)-1-fluoro-13-(((2R,7aS)-2-fluorotetrahydro-1H-pyrrolizin-7a(5H)-yl)methoxy)-5,6,6a,7,8,9,10,11-octahydro-4H-3,11a,12,14,15-pentaaza-7,10-methanocyclohepta[4,5]cycloocta[1,2,3-de]naphthalen-2-yl)naphthalen-2-ol]	0.06 nM	0.17 nM	0.5 nM	–	–
C#Cc1c(F)ccc2cccc(-c3nc4c5c(nc(OC[C@@]67CCCN6C[C@H](F)C7)nc5c3F)N3C[C@@]5(C)CC[C@H](N5)[C@H]3CC4)c12 [Example 191, (5aR,6S,9R)-2-(8-ethynyl-7-fluoronaphthalen-1-yl)-1-fluoro-12-(((2R,7aS)-2-fluorotetrahydro-1H-pyrrolizin-7a(5H)-yl)methoxy)-9-methyl-4,5,5a,6,7,8,9,10-octahydro-3,10a,11,13,14-pentaaza-6,9-methanonaphtho[1,8-ab]heptalene]	2 nM	39.8 nM	110 nM	–	–

— patent US20230339981A1, “KRAS G12D MODULATING COMPOUNDS” (priority 2022, published 2023)
